Experiments:
Assay type in all cases: in vivo
[1] = tested on: Cowpea Aphid (aphis craccivora); assay: Cowpea aphid (aphis craccivora), spray on potted cowpea plants; settings: population reduction assessed after 24, 72 and 120 hours, in comparison with untreated controls
Procedure: The active compounds were formulated in 50:50 (vol:vol) acetone:water. The test solution was prepared at the day of use.
Potted cowpea plants colonized with 100-150 aphids of various stages were sprayed after the pest population had been recorded. Population reduction was assessed after 24, 72, and 120 hours.

[2] = tested on: Vetch Aphid (Megoura viciae); assay: Vetch aphid (Megoura viciae), bean leaf disk microtiterplate test; settings: foliar, 144 h, concentration of the test solution 2500 mg/L, 6 days
Procedure: The active compounds were formulated in 1:3 (vol:vol) DMSO:water with different concentrations of formulated compounds.
Bean leaf disks were placed into microtiterplates filled with 0.8% agar-agar and 2.5 ppm OPUS™. The leaf disks were sprayed with 2.5 μl of the test solution and 5 to 8 adult aphids were placed into the microtiterplates which were then closed and kept at 23±1° C. and 50±5% relative humidity under fluorescent light for 6 days. Mortality was assessed on the basis of vital, reproduced aphids. Aphid mortality and fecundity was then visually assessed.

[3] = tested on: Boll Weevil (Anthonomus grandis); assay: Boll weevil (Anthonomus grandis), insect diet microtiter plate test; settings: 120 h, concentration of the test solution 2500 mg/L, egg and larval mortality after 5 days
Procedure: The compounds were formulated in 75:25 (vol:vol) water:DMSO.
For evaluating control of boll weevil (Anthonomus grandis) the test unit consisted of 24-well-microtiter plates containing an insect diet and 20-30 A. grandis eggs. Different concentrations of formulated compounds were sprayed onto the insect diet at 20 μl, using a custom built micro atomizer, at two replications. After application, the microtiter plates were incubated at 23±1° C. and 50±5% relative humidity for 5 days. Egg and larval mortality was then visually assessed.

[4] = tested on: Green Peach Aphid (Myzus persicae, Mixed Life Stages); assay: Green peach aphid (Myzus persicae, mixed life stages), pepper leaf dip test; settings: foliar, 120 h, after 5 days, in comparison with untreated controls
Text: (§1) The active compounds were formulated in 50:50 (vol:vol) acetone:water and 100 ppm Kinetica™ surfactant.
Pepper plants in the 2nd leaf-pair stage (variety ‘California Wonder’) were infested with approximately 40 laboratory-reared aphids by placing infested leaf sections on top of the test plants. The leaf sections were removed after 24 hr. The leaves of the intact plants were dipped into gradient solutions of the test compound and allowed to dry. Test plants were maintained under fluorescent light (24 hour photoperiod) at about 25° C. and 20-40% relative humidity. Aphid mortality on the treated plants, relative to mortality on check plants, was determined after 5 days.

[5] = tested on: Cotton Aphid (aphis gossypii, Mixed Life Stages); assay: Cotton aphid (aphis gossypii, mixed life stages), cotyledon dip test; settings: 120 h, mortality counts after 5 days, in comparison with untreated controls
Text: as §1
Cotton plants at the cotyledon stage (one plant per pot) were infested by placing a heavily infested leaf from the main colony on top of each cotyledon. The aphids were allowed to transfer to the host plant overnight, and the leaf used to transfer the aphids was removed. The cotyledons were dipped in the test solution and allowed to dry. After 5 days, mortality counts were made.

[6] = tested on: Southern Armyworm (spodoptera eridania, 2nd instar larvae); assay: Southern armyworm (spodoptera eridania, 2nd instar larvae), lima bean leaf dip test; settings: foliar, 96 h, at 4 days, in comparison with untreated controls
Procedure: as §1
A pair of first true leaves of Sieva lima bean was dipped in the test solution and allowed to dry. The leaf was then placed in a plastic perforated zip enclosure bag and ten 2nd instar larvae were added. At 4 days, observations were made of mortality and reduced feeding.

[7] = tested on: Silverleaf Whitefly (bemisia argentifolii, adult); assay: Silverleaf whitefly (bemisia argentifolii, adult), cotton cotyledon dip test; settings: 72 h, 3 days after treatment, in comparison with untreated controls
Procedure: as §1
Selected cotton plants were grown to the cotyledon state (one plant per pot). The cotyledons were dipped into the test solution to provide complete coverage of the foliage and placed in a well-vented area to dry. Each pot with treated seedling was placed in a plastic cup and 10 to 12 whitefly adults (approximately 3-5 day old) were introduced. The insects were collected using an aspirator and an 0.6 cm, non-toxic Tygon® tubing (R-3603) connected to a barrier pipette tip. The tip, containing the collected insects, was then gently inserted into the soil containing the treated plant, allowing insects to crawl out of the tip to reach the foliage for feeding. The cups were covered with a reusable screened lid (150 micron mesh polyester screen PeCap from Tetko Inc). Test plants were maintained in the holding room at about 25° C. and 20-40% relative humidity for 3 days avoiding direct exposure to the fluorescent light (24 hour photoperiod) to prevent trapping of heat inside the cup. Mortality was assessed 3 days after treatment of the plants.

In the case of `CCn1ncc(C(=O)N(C)c2cccnc2)c1C(F)(F)F` [Compound 186], the mortality at 300 ppm [1] is reported as ≥ 75%, the mortality at 2500 µg/mL [2] is reported as ≥ 80% and the mortality at 2500 µg/mL [3] is reported as 100%. The mortality at 300 ppm [4] was ≥ 50% and the mortality at 300 ppm [5] was ≥ 75%.

For `Cn1nc(C(F)(F)F)c(C(=O)Nc2cccnc2)c1F` [Compound 78], the mortality at 300 ppm [6] was ≥ 50%.

For `O=C(Nc1cccnc1)c1cnn(-c2ccc([N+](=O)[O-])cc2)c1C(F)(F)F` [Compound 199], the mortality at 300 ppm [1] was ≥ 75%, the mortality at 300 ppm [4] was ≥ 50% and the mortality at 300 ppm [5] was ≥ 75%. The mortality at 300 ppm [6] was ≥ 50%.

For `CCn1cc(C(=O)Nc2cccnc2)cn1` [Compound 102], the mortality at 300 ppm [1] was ≥ 75%, the mortality at 300 ppm [7] was ≥ 50% and the mortality at 2500 µg/mL [2] was ≥ 80%. For the same molecule, the mortality at 2500 µg/mL [3] was 100%, the mortality at 300 ppm [4] was ≥ 50% and the mortality at 300 ppm [5] was ≥ 75%.

For `CN(C(=O)c1cnn(C(F)(F)F)c1)c1cccnc1` [Compound 233], the mortality at 300 ppm [4] was ≥ 50%, the mortality at 300 ppm [5] was ≥ 75% and the mortality at 300 ppm [6] was ≥ 50%.

For `Cn1ncc(C(=O)Nc2cccnc2)c1Cl` [Compound 83], the mortality at 300 ppm [1] was ≥ 75%, the mortality at 300 ppm [7] was ≥ 50% and the mortality at 300 ppm [4] was ≥ 50%. For the same molecule, the mortality at 300 ppm [5] was ≥ 75%.

For `Cc1c(C(=O)N(C)c2cccnc2)cnn1C(F)F` [Compound 220], the mortality at 300 ppm [1] was ≥ 75%, the mortality at 2500 µg/mL [2] was ≥ 80% and the mortality at 2500 µg/mL [3] was 100%. The mortality at 300 ppm [4] was ≥ 50%, the mortality at 300 ppm [5] was ≥ 75% and the mortality at 300 ppm [6] was ≥ 50%.

`O=C(Nc1cccnc1)c1cnn(-c2cccc(Cl)c2)c1C(F)F` [Compound 157] was tested, and the mortality at 300 ppm [1] was ≥ 75%, the mortality at 2500 µg/mL [2] was ≥ 80% and the mortality at 2500 µg/mL [3] was 100%. For the same molecule, the mortality at 300 ppm [4] was ≥ 50%, the mortality at 300 ppm [5] was ≥ 75% and the mortality at 300 ppm [6] was ≥ 50%.

With `Cc1cccc(-n2ncc(C(=O)Nc3cccnc3)c2C(F)F)c1` [Compound 158] the mortality at 300 ppm [1] was ≥ 75%, the mortality at 2500 µg/mL [2] was ≥ 80% and the mortality at 300 ppm [4] was ≥ 50%. The mortality at 300 ppm [5] was ≥ 75% and the mortality at 300 ppm [6] was ≥ 50%.

With `Cn1ncc(C(=O)Nc2cccnc2)c1C(F)(F)F` [Compound 109] the mortality at 300 ppm [1] was ≥ 75%, the mortality at 300 ppm [7] was ≥ 50% and the mortality at 2500 µg/mL [2] was ≥ 80%. For the same molecule, the mortality at 2500 µg/mL [3] was 100%, the mortality at 300 ppm [4] was ≥ 50% and the mortality at 300 ppm [5] was ≥ 75%.

`Cc1ccc(-n2ncc(C(=O)Nc3cccnc3)c2C(F)F)cc1` [Compound 138] was tested, and the mortality at 300 ppm [1] was ≥ 75%, the mortality at 2500 µg/mL [2] was ≥ 80% and the mortality at 2500 µg/mL [3] was 100%. The mortality at 300 ppm [4] was ≥ 50% and the mortality at 300 ppm [5] was ≥ 75%.

For `Cn1ncc(C(=O)Nc2cccnc2)c1C(F)F` [Compound 167], the mortality at 300 ppm [1] was ≥ 75%, the mortality at 2500 µg/mL [2] was ≥ 80% and the mortality at 2500 µg/mL [3] was 100%. The mortality at 300 ppm [4] was ≥ 50% and the mortality at 300 ppm [5] was ≥ 75%.

For `CC(C)Cn1cc(C(=O)Nc2cccnc2)cn1` [Compound 98], the mortality at 300 ppm [1] was ≥ 75%, the mortality at 2500 µg/mL [2] was ≥ 80% and the mortality at 300 ppm [4] was ≥ 50%. For the same molecule, the mortality at 300 ppm [5] was ≥ 75% and the mortality at 300 ppm [6] was ≥ 50%.

`CCc1c(C(=O)N(C)c2cccnc2)cnn1CC` [Compound 185] was tested, and the mortality at 300 ppm [1] was ≥ 75%, the mortality at 2500 µg/mL [2] was ≥ 80% and the mortality at 2500 µg/mL [3] was 100%. For the same molecule, the mortality at 300 ppm [4] was ≥ 50% and the mortality at 300 ppm [5] was ≥ 75%.

With `Cn1cc(C(=O)Nc2cccnc2)c(OC(F)F)n1` [Compound 110] the mortality at 300 ppm [1] was ≥ 75%, the mortality at 2500 µg/mL [2] was ≥ 80% and the mortality at 2500 µg/mL [3] was 100%. The mortality at 300 ppm [4] was ≥ 50% and the mortality at 300 ppm [5] was ≥ 75%.

For `Cc1ccccc1-n1ncc(C(=O)Nc2cccnc2)c1C(F)F` [Compound 156], the mortality at 300 ppm [1] was ≥ 75%, the mortality at 2500 µg/mL [2] was ≥ 80% and the mortality at 2500 µg/mL [3] was 100%. The mortality at 300 ppm [4] was ≥ 50% and the mortality at 300 ppm [5] was ≥ 75%.
